# Tested on: Prostaglandin PG6KF1α production in stimulated human keratinocyte
# Assay: Production of prostaglandin PG6KF1α induced at the keratinocyte by calcium ionophore A23187
# Type: cell-based
# Details: 10 μg/ml
# Description: Principle: The keratinocyte, the most represented cell at the epidermis, plays a significant role in initiating and modulating inflammatory reactions of the skin. With the model it is possible to determine in vitro the capabilities of various molecules of modulating the production of mediators stemming from the metabolism of arachidonic acid. Prostaglandin PG6KF1α is a stable metabolite of prostacyclin PGI2, a major metabolite produced by the stimulated human keratinocyte. An acetone extract of aerial parts of oats harvested before ear emergence and its fractions were evaluated on the production of this prostaglandin induced at the keratinocyte by the calcium ionophore A23187 (stimulating the cascade of arachidonic acid).
structure (smiles),measurement,value
O=c1cc(-c2ccc(O)c(O)c2)oc2cc(O)c([C@@H]3O[C@H](CO)[C@@H](O)[C@H](O)[C@H]3OC3OC[C@@H](O)[C@@H](O)[C@@H]3O)c(O)c12 (stereo partly shown) [isoorientin-2″-O-arabinosyl],inhibition of PG6KF1α production,55%

# From patent US9339668B2, “Extract of aerial parts of oats harvested before ear emergence” (priority 2008, dated 2016)
